Where a SMILES comes first, the peptide text is derived from it. [ ]: non-standard residue; d: D form. βAla = NCCC(=O)O
What follows are molecules tested on anti-hCG monoclonal antibody directed against a portion of the β-subunit of hCG (assay: EIA binding of BSA-conjugated peptide with anti-hCG monoclonal antibody). Details: peptide conjugated to BSA, absorbed on 96-well plate; antibody overnight at 4° C; alkaline phosphatase labeled protein A.
Excerpt: The peptide was conjugated through its thiol group to BSA using a heterobifunctional cross-linking reagent (succinimidyl 4-(N-maleimidomethyl)cyclohexane-1-carboxylate). The conjugates were first absorbed on the wells of a ninety-six well plate. Nonspecific binding sites on the surface was masked by unlabeled BSA. […] Alkaline phosphatase labeled protein A was used for the color development.

| Molecule | binding with anti-hCG antibody (EIA response) |
| --- | --- |
| H2 N-Gly-Gly-Arg-Leu-Pro-Gly-Pro-Ser-Asp-Cys-Gly-COOH (H-GGRLPGPSDCG-OH) [EXAMPLE I] | positive results |

Each molecule was assayed on second monoclonal antibody against hCG (assay: not given). Details: not given.

| Molecule | Krel (relative binding affinity) |
| --- | --- |
| CSCC[C@H](NC(=O)[C@H](Cc1ccc(O)cc1)NC(=O)[C@H](CCC(N)=O)NC(=O)[C@@H]1CCCN1C(=O)CNC(=O)[C@H](C)NC(=O)[C@H](CO)NC(=O)CNC(=O)[C@H](CO)NC(=O)CN)C(=O)N[C@@H](Cc1ccccc1)C(=O)NCC(=O)NCCC(=O)O [SEQ ID NO: 23, Gly--Ser--Gly--Ser--Ala--Gly--Pro--Gln--Tyr--Met--Phe--Gly--βAla] (H-GSGSAGPQYMFG[βAla]-OH) | 1.0 |
| CC[C@H](C)[C@H](NC(=O)[C@@H]1CCCN1C(=O)CNC(=O)[C@H](C)NC(=O)[C@H](CO)NC(=O)CNC(=O)[C@H](CO)NC(=O)CN)C(=O)N[C@@H](Cc1ccc(O)cc1)C(=O)N[C@H](C(=O)N[C@@H](Cc1ccccc1)C(=O)NCC(=O)NCCC(=O)O)C(C)C [SEQ ID NO: 19, Gly--Ser--Gly--Ser--Ala--Gly--Pro--Ile--Tyr--Val--Phe--Gly--βAla] (H-GSGSAGPIYVFG[βAla]-OH) | 6.6 |
| CC(C)[C@H](NC(=O)[C@@H]1CCCN1C(=O)CNC(=O)[C@H](C)NC(=O)[C@H](CO)NC(=O)CNC(=O)[C@H](CO)NC(=O)CN)C(=O)N[C@@H](Cc1ccc(O)cc1)C(=O)N[C@@H](CO)C(=O)N[C@@H](Cc1ccccc1)C(=O)NCC(=O)NCCC(=O)O [SEQ ID NO: 20, Gly--Ser--Gly--Ser--Ala--Gly--Pro--Val--Tyr--Ser--Phe--Gly--βAla] (H-GSGSAGPVYSFG[βAla]-OH) | 2.0 |
| C[C@H](NC(=O)[C@H](CO)NC(=O)CNC(=O)[C@H](CO)NC(=O)CN)C(=O)NCC(=O)N1CCC[C@H]1C(=O)N[C@@H](CCCNC(=N)N)C(=O)N[C@@H](Cc1ccc(O)cc1)C(=O)N[C@@H](CC(N)=O)C(=O)N[C@@H](Cc1ccccc1)C(=O)NCC(=O)NCCC(=O)O [SEQ ID NO: 21, Gly--Ser--Gly--Ser--Ala--Gly--Pro--Arg--Tyr--Asn--Phe--Gly--βAla] (H-GSGSAGPRYNFG[βAla]-OH) | 1.6 |
| CC[C@H](C)[C@H](NC(=O)[C@@H]1CCCN1C(=O)CNC(=O)[C@H](C)NC(=O)[C@H](CO)NC(=O)CNC(=O)[C@H](CO)NC(=O)CN)C(=O)N[C@@H](Cc1ccc(O)cc1)C(=O)N[C@@H](CC(=O)O)C(=O)N[C@@H](Cc1ccccc1)C(=O)NCC(=O)NCCC(=O)O [SEQ ID NO: 22, Gly--Ser--Gly--Ser--Ala--Gly--Pro--Ile--Tyr--Asp--Phe--Gly--βAla] (H-GSGSAGPIYDFG[βAla]-OH) | 1.3 |

Reference: patent publication US5380668A (University of Utah Research Foundation, priority 1993, dated 1995)
